From paper PMC10819888, “Benzimidazole-Based Derivatives as Apoptotic Antiproliferative Agents: Design, Synthesis, Docking, and Mechanistic Studies” (Molecules, 2024)

How the values were obtained:
Format in all cases: cell-based, human
caspase-8 = assay: Caspase-8 activation assay; details: PC-3 cell line
Procedure: (§1) For more details, see Supplementary Materials. […]
the positive wells exceeds the limits of the instrument. The O.D. values at 450 nm can only be read after the Stop Solution has been added to each well. If using a reader that […]
100 μl of Stop Solution to each well. Tap side of plate gently to mix. The solution in the wells should change from blue to yellow. Read the absorbance of each well at 450 nm having blanked the plate reader against a chromogen blank composed of 100 μl each of Stabilized Chromogen and Stop Solution. Read the plate within 2 hours after adding the Stop Solution. Use a curve fitting software to generate the standard curve. A four- […]
Read the concentrations for unknown samples and controls from the standard curve. Multiply value(s) obtained for sample(s) by the appropriate dilution factor to correct for the dilution in step 3. Samples […]
Diluent Buffer and reanalyzed.
4.2.4. Caspase-8 activation assay
Cells were obtained from American Type Culture Collection, cells were grown in RPMI […]
tested for caspase8, and lysed with Cell Extraction Buffer. This lysate was diluted in […]
caspase-8 content. (Cells are Plated in a density of 1.2 – 1.8 × 10,000 cells/well in a volume of 100µl complete growth medium + 100 ul of the tested compound per well in a 96-well plate for 24 hours before the enzyme assay for Tubulin.). The absorbance of each microwell was read on a spectro-photometer at 450 nm. A standard curve is prepared from 7human Caspase-8 standard dilutions and human Caspase-8 concentration determined.

Bax = Bax activation assay; details: PC-3 cell line
Procedure: For more details, see Supplementary Materials.
4.2.5. Bax activation assay
Bring all reagents, except the human Bax-α Standard, to room temperature for at least 30 minutes prior to opening. The human Bax -α Standard solution should not be left at room temperature for more than 10 minutes. All standards, controls and samples should be run in duplicate. Refer to the Assay Layout Sheet to determine the number of wells to be used and put any remaining wells with the desiccant back into the pouch and seal the ziploc. Store unused wells at 4 °C. Pipet 100 μL of Assay Buffer into the S0 ( 0 pg/mL standard) wells. Pipet 100 μL of Standards #1 through #6 into the appropriate wells. Pipet 100 μL of the Samples into the appropriate wells. Tap the plate gently to mix the contents. Seal the plate and incubate at room temperature on a plate shaker for 1 hour at ~500 rpm. Empty the contents of the wells and wash by adding 400 μL of wash solution to every well. Repeat the wash 4 more times for a total of 5 washes. After the final wash, empty or aspirate the wells and firmly tap the plate on a lint fr ee paper towel to remove any remaining wash buffer. Pipet 100 μL of yellow Antibody into each well, except the Blank. Seal the plate and incubate at room temperature on a plate shaker for 1 hour at ~500 rpm. Empty the contents of the wells and wash by addi ng 400 μL of […]
the final wash, empty or aspirate the wells and firmly tap the plate on a lint free paper towel to remove any remaining wash buffer. Add 100 μL of blue Co njugate to each well, except the Blank. Seal the plate and incubate at room temperature on a plate shaker for 30 minutes at ~500 rpm. Empty the contents of the wells and wash by adding 400 μL of wash solution to every well. Repeat the wash 4 more times for a total of 5 washes .
After the final wash, empty or aspirate the wells and firmly tap the plate on a lint free paper towel to remove any remaining wash buffer. Pipet 100 μL of Substrate Solution into each well. Incubate for 30 minutes at room temperature on a plate shaker at ~500 rpm. Pipet 100 μL Stop Solution to each well. Blank the plate reader against the Blank wells, read the optical density at 450 nm. Calculate the average net Optical Density (OD) bound for each standard and sample by subtracting the average Blank OD from the average OD for each standard and sample. Using linear graph paper, plot the Average Net OD for each standard versus Bax concentration in each standard.
Approximate a straight line through the points. The concentration of Bax in the unknowns can be determined by interpolation. […]

Bcl-2 = Bcl-2 inhibition assay; details: PC-3 cell line; for down-regulation of anti-apoptotic Bcl-2 protein levels: compared to staurosporine
Procedure: as §1
4.2.6. Bcl-2 inhibition assay
Mix all reagents thoroughly without foaming before use. Wash the microwells twice with approximately 300 μL Wash Buffer per well with thorough aspiration of microwell contents between washes. Take caution not to scratch the surface of the microwells.
After the last wash, empty the wells and tap microwell strips on absorbent pad or paper towel to remove excess Wash Buffer. Use the microwell strips immediately after washing or place upside down on a wet absorbent paper for not longer than 15 minutes.
Add 100 μL of Sample Diluent in duplicate to all standard wells and to the blank wells. Prepare standard (1:2 dilution) in duplicate ranging from 32 ng/mL to 0.5 ng/mL. Add 100 μL of Sample Diluent, in duplicate, to the blank wells.
Add 80 μL of Sample Diluent, in duplicate, to the sample wells. Add 20 μL of each Sample, in duplicate, to the designated wells. Add 50 μL of diluted biotin-conjugate to all wells, including the blank wells. Cover with a plate cover and incubate at room temperature, on a microplate shaker at 100 rpm if available, for 2 hours. Remove plate cover and empty the wells. Wash microwell strips 3 times as described in step 2. Add 100 μL of diluted Streptavidin-HRP to all wells, including the blank wells. Cover with a plate cover and incubate at room temperature, on a microplate shaker at 100 rpm if available, for 1 hour. Remove plate cover and empty the wells. Wash microwell strips […]
3 times as described in step 2. Proceed to the next step. Pipette 100 μl of mixed TMB Substrate Solution to all wells, including the blanks. Incubate the microwell strips at room temperature (18° to 25°C) for about 15 minutes, if available on a rotator set at 100 rpm. Avoid direct exposure to intense light. The point, at which the substrate reaction is stopped, is often determined by the ELISA reader. Many ELISA readers record absorbance only up to 2.0 O.D. Therefore, the color development within individual microwells must be watched by the person running the assay and the substrate reaction stopped before positive wells are no longer properly detectable. Stop the enzyme reaction by quickly pipetting 100 μL of Stop Solution into each well, including the blank wells. It is important that the Stop Solution is spread quickly and uniformly throughout the microwells to completely inactivate the enzyme. Results must be read immediately after the Stop Solution is added or within one hour if the microwell strips are stored at 2 - 8°C in the dark. Read absorbance of each microwell on a spectrophotometer using 450 nm as the primary wavelength.
4.3. Statistical analysis
Computerized Prism 5 program was used to statistically analyzed data using one-way ANOVA test followed by Tukey’s as post ANOVA for multiple comparison at P ≤.05.
Data were presented as mean ± SEM.

Row | Compound | Caspase-8 Conc (caspase-8) | caspase-8 increase compared to untreated control cell (caspase-8) | caspase-8 level (caspase-8) | Bax Conc (Bax) | Bax increase compared to untreated PC-3 cancer cells (Bax) | Bax level (Bax) | Bcl-2 Conc (Bcl-2) | down-regulation of anti-apoptotic Bcl-2 protein levels (Bcl-2) | Caspase-8 Fold Change (caspase-8; vs control) | Bax Fold Change (Bax; vs control) | Bcl-2 Fold Reduction (Bcl-2; vs control)
1 | O=C(NN=Cc1ccc([N+](=O)[O-])cc1)c1ccc2[nH]c(-c3ccc(Cl)cc3)nc2c1 [Compound 4c, N′-(4-Nitrobenzylidene)-2-(4-chlorophenyl)-1H-benzimidazole-5-carbohydrazide] | 1.90 ng/mL | 16 times | 1.90 ng/mL | 185 pg/mL | 26 fold | 185 pg/mL | 0.80 ng/mL | equipotent down-regulation |  |  | 
2 | O=C(NN=Cc1ccc(Cl)cc1)c1ccc2[nH]c(-c3ccc(Cl)cc3)nc2c1 [Compound 4e, N′-(4-Chlorobenzylidene)-2-(4-chlorophenyl)-1H-benzimidazole-5-carbohydrazide] | 2.20 ng/mL | 18 times | 2.20 ng/mL | 220 pg/mL | 31 fold | 220 pg/mL | 0.75 ng/mL | equipotent down-regulation | 18 | 31 | 4
